The source of these data is patent US20260167623A1 (NIKANG THERAPEUTICS, INC., priority 2022, published 2026).

For this test, the target named is T1, CDK2 (Homo sapiens, UniProt P24941).
T1 construct: High-Throughput Measurement of Cellular Endogenous CDK2; endogenous in cells; host or cells: OVCAR3
Kind of test: Inhibition of CDK2: phospho-Rb (S807/811) HTRF measurement in OVCAR3 cells, 24 h. Conditions: 24 h compound treatment, read-out: pRB_OVCAR3_24h. Type of test: cell-based. An outline of the steps: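 OVCAR3 cells, seeded overnight, were exposed to compounds at 0.3 to 10,000 nM for 24 h, then lysed. Rb S807/811 phosphorylation read by HTRF (665/620 nm ratio) after 4 h detection at room temperature; data normalized to DMSO and IC50 from four-parameter logistic fit.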
(In general: TR-FRET usually uses a lanthanide donor and a delayed reading to cut background.)
Take `O=C1CCC(NC(=O)c2ccc(C3CCN(CC4CCN(c5cccc(S(=O)(=O)N6CCC(Nc7ncc(C(F)(F)F)cn7)CC6)c5)CC4)CC3)cc2F)C(=O)N1` (stereo not drawn) [Example 236, N-(2,6-dioxopiperidin-3-yl)-2-fluoro-4-(1-((1-(3-((4-((5-(trifluoromethyl)pyrimidin-2-yl)amino)piperidin-1-yl)sulfonyl)phenyl)piperidin-4-yl)methyl)piperidin-4-yl)benzamide]: the IC50 lay in the range of 100 to 500 nM. As for `O=C1CCC(NC(=O)c2ccc(C3CCN(CC4CCN(c5cccc(S(=O)(=O)N6CCC(Nc7ncc(Cl)cn7)CC6)c5)CC4)CC3)cc2F)C(=O)N1` (stereo not drawn) [Example 237, 4-(1-((1-(3-((4-((5-chloropyrimidin-2-yl)amino)piperidin-1-yl)sulfonyl)phenyl)piperidin-4-yl)methyl)piperidin-4-yl)-N-(2,6-dioxopiperidin-3-yl)-2-fluorobenzamide], the IC50 fell in the range of 500 to 2500 nM.

`Cn1nc(N2CCC(=O)NC2=O)c2ccc(C3CCN(CC4CCN(c5cccc(S(=O)(=O)[C@H]6CC[C@H](Nc7ncc(C(F)(F)F)cn7)CC6)c5)CC4)CC3)cc21` [Example 240]: the IC50 was above 2500 nM. In the case of `Cn1nc(N2CCC(=O)NC2=O)c2ccc(C3CCN(Cc4ccc(S(=O)(=O)N5CCC(Nc6ncc(OC(F)F)cn6)CC5)cc4)CC3)c(F)c21` [Example 242, 1-(6-(1-(4-((4-((5-(difluoromethoxy)pyrimidin-2-yl)amino)piperidin-1-yl)sulfonyl)benzyl)piperidin-4-yl)-7-fluoro-1-methyl-1H-indazol-3-yl)dihydropyrimidine-2,4(1H,3H)-dione], the IC50 lay within 500 to 2500 nM. Take `Cn1nc(N2CCC(=O)NC2=O)c2ccc(C3CCN(CC4CCN(c5cccc(S(=O)(=O)N6CCC(Nc7ncc(CC(F)(F)F)cn7)CC6)c5)CC4)CC3)cc21` [Example 243, 1-(1-methyl-6-(1-((1-(3-((4-((5-(2,2,2-trifluoroethyl)pyrimidin-2-yl)amino)piperidin-1-yl)sulfonyl)phenyl)piperidin-4-yl)methyl)piperidin-4-yl)-1H-indazol-3-yl)dihydropyrimidine-2,4(1H,3H)-dione]: the IC50 lay in the range of 500 to 2500 nM. For `Cn1nc(N2CCC(=O)NC2=O)c2ccc(C3CCN(CC4CCN(c5cccc(S(=O)(=O)c6ccc(Nc7ncc(C(F)(F)F)cn7)cc6)c5)CC4)CC3)cc21` [Example 245, 1-(1-methyl-6-(1-((1-(3-((4-((5-(trifluoromethyl)pyrimidin-2-yl)amino)phenyl)sulfonyl)phenyl)piperidin-4-yl)methyl)piperidin-4-yl)-1H-indazol-3-yl)dihydropyrimidine-2,4(1H,3H)-dione], the IC50 was above 2500 nM.

On to `Cn1nc(C2CCC(=O)NC2=O)c2ccc(C3CCN(CC4CCN(c5cccc(S(=O)(=O)N6CCC(Nc7ncc(Cl)cn7)CC6)c5)CC4)CC3)cc21` (stereo not drawn) [Example 246, 3-(6-(1-((1-(3-((4-((5-chloropyrimidin-2-yl)amino)piperidin-1-yl)sulfonyl)phenyl)piperidin-4-yl)methyl)piperidin-4-yl)-1-methyl-1H-indazol-3-yl)piperidine-2,6-dione], for which the IC50 is 500 to 2500 nM. For `Cn1nc(N2CCC(=O)NC2=O)c2ccc(C3CN(CC4CCN(c5cccc(S(=O)(=O)N6CCC(Nc7ncc(Cl)cn7)CC6)c5)CC4)C3)cc21` [Example 249, 1-(6-(1-((1-(3-((4-((5-chloropyrimidin-2-yl)amino)piperidin-1-yl)sulfonyl)phenyl)piperidin-4-yl)methyl)azetidin-3-yl)-1-methyl-1H-indazol-3-yl)dihydropyrimidine-2,4(1H,3H)-dione], the IC50 was 100 to 500 nM. Take `Cn1nc(N2CCC(=O)NC2=O)c2ccc(C3CCN(CC4CCN(c5cccc(S(=O)(=O)N6CCC(Nc7ncc(OC8CC8)cn7)CC6)c5)CC4)CC3)cc21` [Example 252, 1-(6-(1-((1-(3-((4-((5-cyclopropoxypyrimidin-2-yl)amino)piperidin-1-yl)sulfonyl)phenyl)piperidin-4-yl)methyl)piperidin-4-yl)-1-methyl-1H-indazol-3-yl)dihydropyrimidine-2,4(1H,3H)-dione]: the IC50 lay in the range of 100 to 500 nM. `CC(C)Oc1cnc(NC2CCN(S(=O)(=O)c3cccc(N4CCC(CN5CCC(c6ccc7c(N8CCC(=O)NC8=O)nn(C)c7c6)CC5)CC4)c3)CC2)nc1` [Example 253, 1-(6-(1-((1-(3-((4-((5-isopropoxypyrimidin-2-yl)amino)piperidin-1-yl)sulfonyl)phenyl)piperidin-4-yl)methyl)piperidin-4-yl)-1-methyl-1H-indazol-3-yl)dihydropyrimidine-2,4(1H,3H)-dione]: the IC50 was above 2500 nM. As for `Cn1cc(C2CCC(=O)NC2=O)c2ccc(C3CCN(CC4CCN(c5cccc(S(=O)(=O)N6CCC(Nc7ncc(Cl)cn7)CC6)c5)CC4)CC3)cc21` (stereo not drawn) [Example 254, 3-(6-(1-((1-(3-((4-((5-chloropyrimidin-2-yl)amino)piperidin-1-yl)sulfonyl)phenyl)piperidin-4-yl)methyl)piperidin-4-yl)-1-methyl-1H-indol-3-yl)piperidine-2,6-dione], the IC50 is 100 to 500 nM. The value for `Cn1nc(N2CCC(=O)NC2=O)c2ccc(C3CCN(C[C@H]4CCCN4c4cc(S(=O)(=O)N5CCC(Nc6ncc(OC(F)F)cn6)CC5)ccc4C#N)CC3)cc21` [Example 255, (R)-4-((4-((5-(difluoromethoxy)pyrimidin-2-yl)amino)piperidin-1-yl)sulfonyl)-2-(2-((4-(3-(2,4-dioxotetrahydropyrimidin-1(2H)-yl)-1-methyl-1H-indazol-6-yl)piperidin-1-yl)methyl)pyrrolidin-1-yl)benzonitrile] was 100 to 500 nM; that for `Cn1nc(N2CCC(=O)NC2=O)c2ccc(C3CCN(C[C@@H]4CCCN4c4cc(S(=O)(=O)N5CCC(Nc6ncc(OC(F)F)cn6)CC5)ccc4C#N)CC3)cc21` [Example 256, (S)-4-((4-((5-(difluoromethoxy)pyrimidin-2-yl)amino)piperidin-1-yl)sulfonyl)-2-(2-((4-(3-(2,4-dioxotetrahydropyrimidin-1(2H)-yl)-1-methyl-1H-indazol-6-yl)piperidin-1-yl)methyl)pyrrolidin-1-yl)benzonitrile] was 100 to 500 nM. As to `Cn1nc(N2CCC(=O)NC2=O)c2ccc(C3CCN(C[C@@H]4CCCN(c5cccc(S(=O)(=O)N6CCC(Nc7ncc(OC(F)F)cn7)CC6)c5)C4)CC3)cc21` [Example 257, (S)-1-(6-(1-((1-(3-((4-((5-(difluoromethoxy)pyrimidin-2-yl)amino)piperidin-1-yl)sulfonyl)phenyl)piperidin-3-yl)methyl)piperidin-4-yl)-1-methyl-1H-indazol-3-yl)dihydropyrimidine-2,4(1H,3H)-dione], the IC50 was 100 to 500 nM. Regarding `Cn1nc(N2CCC(=O)NC2=O)c2ccc(C3CCN(C[C@H]4CCCN(c5cccc(S(=O)(=O)N6CCC(Nc7ncc(OC(F)F)cn7)CC6)c5)C4)CC3)cc21` [Example 258, (R)-1-(6-(1-((1-(3-((4-((5-(difluoromethoxy)pyrimidin-2-yl)amino)piperidin-1-yl)sulfonyl)phenyl)piperidin-3-yl)methyl)piperidin-4-yl)-1-methyl-1H-indazol-3-yl)dihydropyrimidine-2,4(1H,3H)-dione], the IC50 was in the range of 100 to 500 nM. Take `Cn1nc(N2CCC(=O)NC2=O)c2ccc(C3CCN(C[C@@H]4CCCN4c4cccc(S(=O)(=O)N5CCC(Nc6ncc(OC(F)F)cn6)CC5)c4)CC3)cc21` [Example 259, (S)-1-(6-(1-((1-(3-((4-((5-(difluoromethoxy)pyrimidin-2-yl)amino)piperidin-1-yl)sulfonyl)phenyl)pyrrolidin-2-yl)methyl)piperidin-4-yl)-1-methyl-1H-indazol-3-yl)dihydropyrimidine-2,4(1H,3H)-dione]: the IC50 was 500 to 2500 nM. For the compound `Cn1nc(N2CCC(=O)NC2=O)c2ccc(C3CCN(C[C@H]4CCCCN4c4cccc(S(=O)(=O)N5CCC(Nc6ncc(OC(F)F)cn6)CC5)c4)CC3)cc21` [Example 260, (R)-1-(6-(1-((1-(3-((4-((5-(difluoromethoxy)pyrimidin-2-yl)amino)piperidin-1-yl)sulfonyl)phenyl)piperidin-2-yl)methyl)piperidin-4-yl)-1-methyl-1H-indazol-3-yl)dihydropyrimidine-2,4(1H,3H)-dione], the IC50 lay within 100 to 500 nM.

Turning to `Cn1nc(N2CCC(=O)NC2=O)c2ccc(C3CCN(C[C@@H]4CCCCN4c4cccc(S(=O)(=O)N5CCC(Nc6ncc(OC(F)F)cn6)CC5)c4)CC3)cc21` [Example 261, (S)-1-(6-(1-((1-(3-((4-((5-(difluoromethoxy)pyrimidin-2-yl)amino)piperidin-1-yl)sulfonyl)phenyl)piperidin-2-yl)methyl)piperidin-4-yl)-1-methyl-1H-indazol-3-yl)dihydropyrimidine-2,4(1H,3H)-dione], the IC50 was in the range of 100 to 500 nM.
